Measured values reported in patent US20160175292A1, “Antioxidants Having Aromatic Structures Reacting with Superoxide” (priority 2014, published 2016).
“Also recorded” adds a separate entry of the source. Values belong to the compound of their own block, whether it stands above or below them.

Legend:
T cell proliferation = test: In vitro T cell proliferation (FIG. 9); assay type: cell-based
Excerpt: This is similar to the activity observed with PEG-HCCs.

[1] = Superoxide scavenging assay using nitroblue tetrazolium (NBT) and KO2 (FIG. 11); assay type: biochemical; conditions: NBT added 30 s, 60 s, 120 s, 300 s after KO2; diformazan at 560 nm
Method: The antioxidant and buffer/solvent was added to a cuvette, followed by the KO2 solution. After a set time (30 s, 60 s, 120 s, 300 s), NBT was added and the resulting mixture analyzed for the NBT diformazan (λmax=560 nm) by UV-Vis spectroscopy (FIG. 11).
In FIG. 11, PEG-HCCs and p-benzoquinone (pBQ) were also run for comparison.

rat T cells = test: In vitro proliferation of ConA-stimulated rat T cells, micromolar concentration (FIG. 10); assay type: cell-based; conditions: rat T cells stimulated with 1 μg/mL ConA
Method: In vitro analysis of EG3-NDI LNA20, EG8-PDI LNA30, and EG8-NDI, labeled LNA38 (which is Compound A in FIG. 4 where n=8) on T cell proliferation based on micromolar concentration was performed. 1 μg/mL ConA (mitogen) was used to stimulate rat T cells. […] Error bars represent variability between replicate wells. Unstimulated cells (left-hand bar) are shown as a negative control. Statistical analysis was performed between stimulated control cells without treatment (“Stimulated” bar) vs. various doses of the different compounds using a one-way ANOVA and Bonferonni post-hoc tests. *P<0.05, ***P<0.001, ****P<0.0001.

[2] = Cyclic voltammetry, reduction potential (FIG. 12); assay type: physicochemical; conditions: 50 mM PBS pH 7.4, modified glassy carbon electrode, scan rate 100 mV/s
Method: FIG. 12 is a cyclic voltometry (“CV”) plot of 50 mM PBS (pH=7.4) bare glassy carbon (GC) working electrode and with modified perylene tetracarboxylic anhydride (PTCA) and HCC. (Scan rate: 100 mV/s).
The triethyleneglycol-PDIs (TEG-PDIs) and TEG-NDIs have been analyzed electrochemically and show similar reduction potentials to the HCCs and PEG-HCCs. Electrochemical investigations of HCCs have placed its reduction at −0.7 V vs. Ag/AgCl, as shown by its broad peak in Plot A below.
Accordingly, the triethyleneglycol-PDIs (TEG-PDIs) and TEG-NDIs have been analyzed electrochemically and shown to have similar reduction potentials to the HCCs and PEG-HCCs. Electrochemical investigations of HCCs have placed its reduction at —0.7 V vs. Ag/AgCl (Plot A). 3,4,9,10-Perylenediimide (PDI) derivatives also have redox potentials˜−0.6 V. 1,4,5,8-Naphthalenediimide (NDI) derivatives show discrete reduction steps in the same region (Plot B).

SMILES: COCCOCCOCCN1C(=O)c2ccc3c4c(ccc(c24)C1=O)C(=O)N(CCOCCOCCOC)C3=O [LNA20, bis-methoxytriethylene glycol naphthalene diimide]
concentrations showing inhibitory effects on T cell proliferation (T cell proliferation): above 10 μg/mL
effect on T cell proliferation (T cell proliferation): exhibit an inhibitory effect
superoxide consumption / reaction with superoxide (reduction of NBT) [1]: reacts with superoxide; also recorded: showed activity
effect on T cell proliferation (rat T cells): exhibit an inhibitory effect
relative potency in inhibiting T cell proliferation (rat T cells): most potent

SMILES: O=C1C=CC(=O)C=C1 [pBQ, p-benzoquinone, reference compound]
superoxide consumption / reaction with superoxide (reduction of NBT) [1]: near complete consumption of superoxide; also recorded: nearly completely consumed

reduction potential [2]: −0.7 V vs. Ag/AgCl
SMILES: O=C1OC(=O)c2ccc3c4ccc5c6c(ccc(c7ccc1c2c73)c64)C(=O)OC5=O [perylene tetracarboxylic anhydride]
